# Test results taken from patent US9670201B2, “Methyl- and trifluoromethyl-substituted pyrrolopyridine modulators of RORC2 and methods of use thereof” (Pfizer Inc., priority 2014, dated 2017).
# pIC50: −log10 of the molar value.
# Target: RORC2 ligand binding domain (6-His-RORC2 LBD) (Homo sapiens (Human), UniProt P51449)
# Experiment: Co-activator recruitment by TR-FRET
# Assay type: biochemical
# Details: 6-His-RORC2 LBD / SRC1-2 coactivator peptide, Table 1
# Sequence of RORC2 ligand binding domain (6-His-RORC2 LBD) (P51449 269-508): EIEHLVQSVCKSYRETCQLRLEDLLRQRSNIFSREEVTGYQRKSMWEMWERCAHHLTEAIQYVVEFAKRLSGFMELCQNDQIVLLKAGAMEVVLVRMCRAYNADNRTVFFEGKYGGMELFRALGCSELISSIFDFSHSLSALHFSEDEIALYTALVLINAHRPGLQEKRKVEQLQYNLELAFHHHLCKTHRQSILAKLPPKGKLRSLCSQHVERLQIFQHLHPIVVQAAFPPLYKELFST
row,SMILES,pIC50
1,"Cn1cc(C2CCN(C(=O)CC3CCC3)CC2)c2c(C(F)(F)F)c(NC(=O)c3cccc(C#N)c3)cnc21 [Example 18, 3-cyano-N-(3-(1-(2-cyclobutylacetyl)piperidin-4-yl)-1-methyl-4-(trifluoromethyl)-1H-pyrrolo[2,3-b]pyridin-5-yl)benzamide]",8.42
2,"Cc1c(NC(=O)c2cccc(C#N)c2)cnc2c1c([C@@H]1CCN(C(=O)C[C@@H](O)C(F)(F)F)C(C)(C)C1)cn2C [Example 73, 3-cyano-N-(3-((R)-2,2-dimethyl-1-((R)-4,4,4-trifluoro-3-hydroxybutanoyl)piperidin-4-yl)-1,4-dimethyl-1H-pyrrolo[2,3-b]pyridin-5-yl)benzamide]",7.65
3,"Cc1c(NC(=O)c2cccc(C#N)c2)cnc2c1c([C@@H]1CCN(C(=O)C(C)C)[C@@H](C)C1)cn2C [Example 113, 3-cyano-N-(3-((2S,4R)-1-isobutyryl-2-methylpiperidin-4-yl)-1,4-dimethyl-1H-pyrrolo[2,3-b]pyridin-5-yl)benzamide]",7.69
4,"Cc1ccc(C(=O)Nc2cnc3c(c([C@@H]4CCN(C(=O)C5CCCC5)C(C)(C)C4)cn3C)c2C)cc1C#N [Example 59, (R)-3-cyano-N-(3-(1-(cyclopentanecarbonyl)-2,2-dimethylpiperidin-4-yl)-1,4-dimethyl-1H-pyrrolo[2,3-b]pyridin-5-yl)-4-methylbenzamide]",7.93
5,"COc1cc(Cl)cc(C(=O)Nc2cnc3c(c([C@@H]4CCN(C(=O)C5CCCC5)C(C)(C)C4)cn3C)c2C)c1 [Example 63, (R)-3-chloro-N-(3-(1-(cyclopentane-carbonyl)-2,2-dimethylpiperidin-4-yl)-1,4-dimethyl-1H-pyrrolo[2,3-b]pyridin-5-yl)-5-methoxybenzamide]",7.89
6,"COc1cc(C#N)cc(C(=O)Nc2cnc3c(c([C@@H]4CCN(C(=O)C5CCCC5)[C@@H](C)C4)cn3C)c2C)c1 [Example 90, 3-cyano-N-(3-((2S,4R)-1-(cyclopentanecarbonyl)-2-methylpiperidin-4-yl)-1,4-dimethyl-1H-pyrrolo[2,3-b]pyridin-5-yl)-5-methoxybenzamide]",7.67
7,"Cc1c(NC(=O)c2cccc(C#N)c2)cnc2c1c([C@@H]1CCN(C(=O)C(C)C3CC3)C[C@@H]1C)cn2C (stereo partly drawn) [Example 86, 3-cyano-N-(3-((3R,4R)-1-(2-cyclopropylpropanoyl)-3-methylpiperidin-4-yl)-1,4-dimethyl-1H-pyrrolo[2,3-b]pyridin-5-yl)benzamide]",7.80
8,"Cc1c(NC(=O)c2ccc(F)c(C#N)c2)cnc2c1c([C@@H]1CCN(C(=O)C3CCCC3)C(C)(C)C1)cn2C [Example 61, (R)-3-cyano-N-(3-(1-(cyclopentanecarbonyl)-2,2-dimethylpiperidin-4-yl)-1,4-dimethyl-1H-pyrrolo[2,3-b]pyridin-5-yl)-4-fluorobenzamide]",7.82
9,"COc1ccc(C(=O)Nc2cnc3c(c(C4[C@@H]5CC[C@H]4CN(C(=O)C4CCCC4)C5)cn3C)c2C)cc1C#N (stereo partly drawn) [Example 99, 3-cyano-N-(3-((1R,5S,8r)-3-(cyclopentanecarbonyl)-3-azabicyclo[3.2.1]octan-8-yl)-1,4-dimethyl-1H-pyrrolo[2,3-b]pyridin-5-yl)-4-methoxybenzamide]",7.68

# Other lines, results leading:
row,pIC50,SMILES
1,8.21,"Cc1c(NC(=O)c2cccc(C#N)c2)cnc2c1c([C@@H]1CCN(C(=O)CC3CCCC3)C(C)(C)C1)cn2C [Example 74, (R)-3-cyano-N-(3-(1-(2-cyclopentylacetyl)-2,2-dimethylpiperidin-4-yl)-1,4-dimethyl-1H-pyrrolo[2,3-b]pyridin-5-yl)benzamide]"
2,8.35,"Cc1c(NC(=O)c2cc(Cl)ccc2F)cnc2c1c(C1CCN(C(=O)[C@H](C)C(C)(C)C)CC1)cn2C [Example 41, (R)-5-chloro-N-(1,4-dimethyl-3-(1-(2,3,3-trimethylbutanoyl)piperidin-4-yl)-1H-pyrrolo[2,3-b]pyridin-5-yl)-2-fluorobenzamide]"
3,7.97,"Cn1cc(C2CCN(C(=O)C3CCCC3)CC2)c2c(C(F)(F)F)c(NC(=O)c3cc(O)cc(C#N)c3)cnc21 [Example 55, 3-cyano-N-(3-(1-(cyclopentanecarbonyl)piperidin-4-yl)-1-methyl-4-(trifluoromethyl)-1H-pyrrolo[2,3-b]pyridin-5-yl)-5-hydroxybenzamide]"
4,7.99,"Cn1cc(C2CCN(C(=O)[C@H]3C[C@H]4CCCC[C@H]4C3)CC2)c2c(C(F)(F)F)c(NC(=O)c3cccc(C#N)c3)cnc21 [Example 16, 3-cyano-N-(1-methyl-3-(1-((2r,3aR,7aS)-octahydro-1H-indene-2-carbonyl)piperidin-4-yl)-4-(trifluoromethyl)-1H-pyrrolo[2,3-b]pyridin-5-yl)benzamide]"
5,8.00,"Cc1c(NC(=O)c2cccc(C#N)c2)cnc2c1c(C1CCN(C(=O)[C@@H]3CCC[C@H]3C)CC1)cn2C (single isomer, unassigned) [Example 47]"
6,8.15,"Cn1cc(C2CCN(C(=O)[C@H]3CCCS3)CC2)c2c(C(F)(F)F)c(NC(=O)c3cccc(C#N)c3)cnc21 (single isomer, unassigned) [Example 28]"
7,8.14,"Cc1c(NC(=O)c2cccc(C#N)c2)cnc2c1c([C@@H]1CCN(C(=O)CC3CCCCC3)C(C)(C)C1)cn2C [Example 75, (R)-3-cyano-N-(3-(1-(2-cyclohexylacetyl)-2,2-dimethylpiperidin-4-yl)-1,4-dimethyl-1H-pyrrolo[2,3-b]pyridin-5-yl)benzamide]"
8,9.05,"Cn1cc(C2CCN(C(=O)[C@@H]3CCCS3)CC2)c2c(C(F)(F)F)c(NC(=O)c3cccc(C#N)c3)cnc21 (single isomer, unassigned) [Example 29]"
9,8.49,"Cn1cc(C2CCN(C(=O)C3CCCC3)CC2)c2c(C(F)(F)F)c(NC(=O)c3ccc(F)c(C#N)c3)cnc21 [Example 3, 3-cyano-N-(3-(1-(cyclopentanecarbonyl)piperidin-4-yl)-1-methyl-4-(trifluoromethyl)-1H-pyrrolo[2,3-b]pyridin-5-yl)-4-fluorobenzamide]"
10,8.24,"Cn1cc([C@@H]2CCN(C(=O)C3CCCC3)C(C)(C)C2)c2c(C(F)(F)F)c(NC(=O)c3cccc(C#N)c3)cnc21 [Example 65, (R)-3-cyano-N-(3-(1-(cyclopentanecarbonyl)-2,2-dimethylpiperidin-4-yl)-1-methyl-4-(trifluoromethyl)-1H-pyrrolo[2,3-b]pyridin-5-yl)benzamide]"
11,8.12,"Cc1c(NC(=O)c2cccc(C#N)c2)cnc2c1c([C@@H]1CCN(C(=O)CC3CCC3)C(C)(C)C1)cn2C [Example 76, (R)-3-cyano-N-(3-(1-(2-cyclobutylacetyl)-2,2-dimethylpiperidin-4-yl)-1,4-dimethyl-1H-pyrrolo[2,3-b]pyridin-5-yl)benzamide]"
12,8.82,"CC(C)C(=O)N1CCC(c2cn(C)c3ncc(NC(=O)c4ccc(Cl)c(C#N)c4)c(C(F)(F)F)c23)CC1 [Example 11, 4-chloro-3-cyano-N-(3-(1-isobutyrylpiperidin-4-yl)-1-methyl-4-(trifluoromethyl)-1H-pyrrolo[2,3-b]pyridin-5-yl)benzamide]"
13,8.24,"CC(C(=O)N1CCC(c2cn(C)c3ncc(NC(=O)c4cccc(C#N)c4)c(C(F)(F)F)c23)CC1)C1CC1 (racemic) [Example 25, Rac-3-cyano-N-(3-(1-(2-cyclopropylpropanoyl)piperidin-4-yl)-1-methyl-4-(trifluoromethyl)-1H-pyrrolo[2,3-b]pyridin-5-yl)benzamide]"
